Test results as given in US10660967B2, “Curcumin conjugates and methods of use thereof” (priority 2016, dated 2020).

Tested on: carrageenan induced paw edema
Experiment: Anti-inflammatory activity: acute carrageenan induced paw edema in rats
Type: in vivo, Wister rats
Conditions: 10 mg kg^−1 indomethacin mol equivalent; for % inhibition of edema / Mean edema thickness: intraperitoneally; for Mean edema thickness: mean ± SE; for Potency (% inhibition of edema relative to that of indomethacin reference standard): at 4 h effect
Experimental: The anti-inflammatory activity of the tested compounds was determined in vivo by the acute carrageenan induced paw edema standard method in rats. See, Naumov, et al., Bioorg. Med. Chem. Lett, 25: 2314-2320 (2015), Tiwari, et al., Org. Biomol. Chem, 12: 7238-7249 (2014), Girgis, et al., Eur. J. Med. Chem, 50: 1-8 (2012), Barsoum, et al., Eur. J. Med. Chem, 44: 2172-2177 (2009), Girgis, et al., Eur. J. Med. Chem, 44: 1972-1977 (2009), Girgis, et al., Eur. J. Med. Chem, 44: 1257-1264 (2009), Girgis, et al., Eur. J. Med. Chem, 44: 91-100 (2009), Girgis, et al., Eur. J. Med. Chem, 43: 2116-2121 (2008), Girgis, et al., Bioorg. Med. Chem, 14: 8527-8532 (2006), and Barsoum, et al., Bioorg. Med. Chem, 14: 3929-3937 (2006).
Adult Wister rats of either sex (pregnant female animals were excluded) weighing 120-150 g were divided into 18 groups of 6 animals each. […] The control group was given DMSO only. Carrageenan paw edema was induced by subcutaneous injection of freshly prepared 1% solution of carrageenan in saline (0.9%, 0.1 ml per rat) into subplantar tissue of the right hind paw of rats. The thickness of the paw was measured (in mm) after successive time intervals (1, 2,3,4 and 24 h) and compared with the initial hind paw thickness of each rat for determining the edema thickness. Data were collected, checked, revised and analyzed. Quantitative variables from normal distribution were expressed as means±SE “standard error”. The anti-inflammatory activity was expressed as percentage inhibition of edema thickness in treated animals in comparison with the control group according to eqn. (1)
Where, Vc and Vt are the mean of edema paw thickness for the control and tested compound treated animal groups, respectively.

SMILES	% inhibition of edema (1 h)	Mean edema thickness (1 h)	% inhibition of edema (2 h)	Mean edema thickness (2 h)	% inhibition of edema (3 h)	Mean edema thickness (3 h)	% inhibition of edema (4 h)	Mean edema thickness (4 h)	% inhibition of edema (24 h)	Mean edema thickness (24 h)	Potency (% inhibition of edema relative to that of indomethacin reference standard)
COc1ccc2c(c1)c(CC(=O)O)c(C)n2C(=O)c1ccc(Cl)cc1 [Compound 2]	53%	1.11 ± 0.12 mm	59%	0.85 ± 0.09 mm	67%	0.59 ± 0.06 mm	87%	0.18 ± 0.03 mm	86%	0.12 ± 0.02 mm	100
CC(C)Cc1ccc(C(C)C(=O)O)cc1 (centres unmarked) [Compound 3]	20%	1.93 ± 0.21 mm	60%	0.82 ± 0.13 mm	65%	0.63 ± 0.09 mm	79%	0.29 ± 0.01 mm	14%	0.71 ± 0.04 mm	
COc1cc(/C=C/C(=O)CC(=O)/C=C/c2ccc(O)c(OC)c2)ccc1O [Compound 4]	12%	2.12 ± 0.19 mm	60%	0.82 ± 0.11 mm	75%	0.45 ± 0.08 mm	85%	0.21 ± 0.08 mm	36%	0.53 ± 0.10 mm	98
COc1cc(/C=C/C(=O)CC(=O)/C=C/c2ccc(OC(=O)CNC(=O)OCc3ccccc3)c(OC)c2)ccc1OC(=O)CNC(=O)OCc1ccccc1 [Compound 5]	64%	0.87 ± 0.16 mm	32%	1.41 ± 0.19 mm	37%	1.13 ± 0.22 mm	34%	0.92 ± 0.20 mm	0%	0.83 ± 0.19 mm	39
COc1cc(/C=C/C(=O)CC(=O)/C=C/c2ccc(OC(=O)[C@H](C)NC(=O)OCc3ccccc3)c(OC)c2)ccc1OC(=O)[C@H](C)NC(=O)OCc1ccccc1 [Compound 6]	56%	1.05 ± 0.24 mm	23%	1.59 ± 0.21 mm	22%	1.40 ± 0.19 mm	12%	1.23 ± 0.25 mm	0%	0.83 ± 0.17 mm	14
COc1cc(/C=C/C(=O)CC(=O)/C=C/c2ccc(OC(=O)C(C)NC(=O)OCc3ccccc3)c(OC)c2)ccc1OC(=O)C(C)NC(=O)OCc1ccccc1 (centres unmarked) [Compound 7]	72%	0.67 ± 0.09 mm	87%	0.26 ± 0.07 mm	97%	0.05 ± 0.02 mm	100%	0.00 ± 0.00 mm	100%	0.00 ± 0.00 mm	115
COc1cc(/C=C/C(=O)CC(=O)/C=C/c2ccc(OC(=O)[C@@H](NC(=O)OCc3ccccc3)C(C)C)c(OC)c2)ccc1OC(=O)[C@@H](NC(=O)OCc1ccccc1)C(C)C [Compound 8]	51%	1.17 ± 0.26 mm	20%	1.65 ± 0.23 mm	19%	1.45 ± 0.20 mm	12%	1.23 ± 0.19 mm	2%	0.81 ± 0.11 mm	14
COc1cc(/C=C/C(=O)CC(=O)/C=C/c2ccc(OC(=O)[C@H](CC(C)C)NC(=O)OCc3ccccc3)c(OC)c2)ccc1OC(=O)[C@H](CC(C)C)NC(=O)OCc1ccccc1 [Compound 9]	34%	1.59 ± 0.18 mm	10%	1.85 ± 0.21 mm	10%	1.61 ± 0.18 mm	11%	1.25 ± 0.09 mm	1%	0.82 ± 0.08 mm	13
COc1cc(/C=C/C(=O)CC(=O)/C=C/c2ccc(OC(=O)[C@H](CCSC)NC(=O)OCc3ccccc3)c(OC)c2)ccc1OC(=O)[C@H](CCSC)NC(=O)OCc1ccccc1 [Compound 10]	76%	0.58 ± 0.15 mm	80%	0.41 ± 0.11 mm	86%	0.25 ± 0.08 mm	88%	0.17 ± 0.02 mm	94%	0.05 ± 0.01 mm	101
COc1cc(/C=C/C(=O)CC(=O)/C=C/c2ccc(OC(=O)[C@H](Cc3ccccc3)NC(=O)OCc3ccccc3)c(OC)c2)ccc1OC(=O)[C@H](Cc1ccccc1)NC(=O)OCc1ccccc1 [Compound 11]	59%	1.00 ± 0.07 mm	24%	1.56 ± 0.09 mm	9%	1.63 ± 0.16 mm	5%	1.38 ± 0.10 mm	1%	0.82 ± 0.13 mm	6
COc1cc(/C=C/C(=O)CC(=O)/C=C/c2ccc(OC(=O)[C@H](Cc3c[nH]c4ccccc34)NC(=O)OCc3ccccc3)c(OC)c2)ccc1OC(=O)[C@H](Cc1c[nH]c2ccccc12)NC(=O)OCc1ccccc1 [Compound 12]	37%	1.52 ± 0.27 mm	28%	1.48 ± 0.22 mm	24%	1.36 ± 0.26 mm	12%	1.23 ± 0.19 mm	1%	0.82 ± 0.17 mm	14
COc1cc(/C=C/C(=O)CC(=O)/C=C/c2ccc(OC(=O)CNC(=O)OCC3c4ccccc4-c4ccccc43)c(OC)c2)ccc1OC(=O)CNC(=O)OCC1c2ccccc2-c2ccccc21 [Compound 13]	40%	1.45 ± 0.15 mm	62%	0.78 ± 0.16 mm	74%	0.47 ± 0.11 mm	79%	0.29 ± 0.04 mm	82%	0.15 ± 0.02 mm	91
